Test results as given in the NIST ThermoML archive (doi:10.1021/acs.jced.8b00509).
“And” between values parts separate entries of the source, which are not always exact repeats. Identical values can stand only once. ± gives the expanded uncertainty stated by the source.

How the values were obtained:
[1] = mn = molality of the nth substance listed, in mol/kg; settings: 100 kPa, Liquid; for viscosity: Capillary tube (Ostwald / Ubbelohde) method; for speed of sound: Frequency=3 MHz, Single path-length method; for mass density: Vibrating tube method
[2] = 100 kPa, Liquid; for viscosity: Capillary tube (Ostwald / Ubbelohde) method

CN(C)C(=N)NC(=N)N.Cl [N,N-dimethylimidodicarbonimidic diamide hydrochloride] + O
[1]
Settings | mass density, m1 = 0.005 [kg/m3] | mass density, m1 = 0.01 [kg/m3] | mass density, m1 = 0.05 [kg/m3] | speed of sound, m1 = 0.005 [m/s] | speed of sound, m1 = 0.01 [m/s] | speed of sound, m1 = 0.05 [m/s] | viscosity, m1 = 0.005 [mPa·s] | viscosity, m1 = 0.01 [mPa·s] | viscosity, m1 = 0.05
293.15 K | 998.35 ± 0.45 | 998.57 ± 0.45 | 999 ± 0.45 | 1483 ± 6 | 1483.3 ± 6 | 1483.7 ± 6 | 1.006 ± 0.027 | 1.01 ± 0.027 | 1.014 ± 0.027 mPa·s
298.15 K | 997.2 ± 0.45 | 997.4 ± 0.45 | 997.91 ± 0.45 | 1497 ± 6 | 1497.3 ± 6 | 1497.7 ± 6 | 0.891 ± 0.027 | 0.893 ± 0.027 | 0.895 ± 0.027 mPa·s and 0.8947 ± 0.026 mPa·s
303.15 K | 995.72 ± 0.45 | 995.99 ± 0.45 | 996.53 ± 0.45 | 1509.4 ± 6 | 1509.7 ± 6 | 1510 ± 6 | 0.799 ± 0.026 | 0.801 ± 0.026 | 0.804 ± 0.026 mPa·s
308.15 K | 994.19 ± 0.45 | 994.37 ± 0.45 | 994.92 ± 0.45 | 1520 ± 6 | 1520.3 ± 6 | 1520.7 ± 6 | 0.722 ± 0.026 | 0.725 ± 0.026 | 0.728 ± 0.026 mPa·s and 0.7276 ± 0.026 mPa·s
313.15 K | 992.38 ± 0.45 | 992.54 ± 0.45 | 993.1 ± 0.45 | 1529.1 ± 6 | 1529.4 ± 6 | 1529.7 ± 6 | 0.655 ± 0.026 | 0.657 ± 0.026 | 0.659 ± 0.026 mPa·s

O [water]
[2]
Settings | viscosity [mPa·s]
293.15 K | 1.002 ± 0.027
298.15 K | 0.89 ± 0.027
303.15 K | 0.797 ± 0.026
308.15 K | 0.719 ± 0.026
313.15 K | 0.652 ± 0.026

Settings | speed of sound [m/s]
[2], 313.15 K, Frequency=3 MHz, Single path-length method | 1528.8 ± 6
